In the supplement of paper PMC10307832:

Tests used:
Assay in all cases: relative viability (nuclei count vs DMSO), 5 days (fraction); higher = more cells survive
COR-L 105 = test system: COR-L 105
How it was run: (§1)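 Each reported value is a median over duplicate plates. It expresses relative viability: treated-well nuclei count divided by vehicle-well nuclei count. Lung cancer cell lines in 1536-well plates were dosed by pin tool a day after seeding, alone with one drug or with a fixed anchor-drug dose plus five library-drug doses (not always all listed) in √10 steps, and nuclei were counted after 5 days.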

NCI-H1975 = test system: NCI-H1975
How it was run: as §1

CAL-12T = test system: CAL-12T
How it was run: as §1

NCI-H1563 = test system: NCI-H1563
How it was run: as §1

NCI-H2405 = test system: NCI-H2405
How it was run: as §1

NCI-H1395 = test system: NCI-H1395
How it was run: as §1

HCC-15 = test system: HCC-15
How it was run: as §1

NCI-H1915 = test system: NCI-H1915
How it was run: as §1

LC-2-ad = test system: LC-2-ad
How it was run: as §1

UMC-11 = test system: UMC-11
How it was run: as §1

Cc1cn(-c2cc(NC(=O)c3ccc(C)c(Nc4nccc(-c5cccnc5)n4)c3)cc(C(F)(F)F)c2)cn1 [Nilotinib] + Cc1nc(NC(=O)N2CCC[C@H]2C(N)=O)sc1-c1ccnc(C(C)(C)C(F)(F)F)c1 [Alpelisib] (partner 2 µM)
relative viability (COR-L 105; first compound 0.001 µM): 0.905
relative viability (COR-L 105; first compound 0.01 µM): 1.22
relative viability (COR-L 105; first compound 0.03162 µM): 0.92
relative viability (COR-L 105; first compound 0.1 µM): 0.917
relative viability (NCI-H1975; first compound 0.001 µM): 0.723
relative viability (NCI-H1975; first compound 0.003162 µM): 0.867
relative viability (NCI-H1975; first compound 0.01 µM): 0.868
relative viability (NCI-H1975; first compound 0.03162 µM): 0.737
relative viability (NCI-H1975; first compound 0.1 µM): 0.648
relative viability (CAL-12T; first compound 0.003162 µM): 1.67
relative viability (CAL-12T; first compound 0.01 µM): 1.92
relative viability (CAL-12T; first compound 0.03162 µM): 0.653
relative viability (CAL-12T; first compound 0.1 µM): 1.22
relative viability (NCI-H1563; first compound 0.001 µM): 0.738
relative viability (NCI-H1563; first compound 0.003162 µM): 0.905
relative viability (NCI-H1563; first compound 0.01 µM): 0.839
relative viability (NCI-H1563; first compound 0.03162 µM): 0.849
relative viability (NCI-H1563; first compound 0.1 µM): 0.79
relative viability (NCI-H2405; first compound 0.001 µM): 0.808
relative viability (NCI-H2405; first compound 0.003162 µM): 0.733
relative viability (NCI-H2405; first compound 0.01 µM): 0.715
relative viability (NCI-H2405; first compound 0.03162 µM): 0.597
relative viability (NCI-H2405; first compound 0.1 µM): 0.486
relative viability (NCI-H1395; first compound 0.001 µM): 0.877
relative viability (NCI-H1395; first compound 0.003162 µM): 0.929
relative viability (NCI-H1395; first compound 0.03162 µM): 0.977
relative viability (NCI-H1395; first compound 0.1 µM): 0.99
relative viability (HCC-15; first compound 0.001 µM): 0.824
relative viability (HCC-15; first compound 0.003162 µM): 1.11
relative viability (HCC-15; first compound 0.01 µM): 1.05
relative viability (HCC-15; first compound 0.03162 µM): 0.727
relative viability (HCC-15; first compound 0.1 µM): 0.616
relative viability (NCI-H1915; first compound 0.001 µM): 0.981
relative viability (NCI-H1915; first compound 0.003162 µM): 1.1
relative viability (NCI-H1915; first compound 0.01 µM): 1.14
relative viability (NCI-H1915; first compound 0.03162 µM): 1.01
relative viability (NCI-H1915; first compound 0.1 µM): 0.981
relative viability (LC-2-ad; first compound 0.001 µM): 0.876
relative viability (LC-2-ad; first compound 0.003162 µM): 1
relative viability (LC-2-ad; first compound 0.01 µM): 1.03
relative viability (LC-2-ad; first compound 0.03162 µM): 0.918
relative viability (LC-2-ad; first compound 0.1 µM): 0.833
relative viability (UMC-11; first compound 0.001 µM): 0.928
relative viability (UMC-11; first compound 0.003162 µM): 1.15
relative viability (UMC-11; first compound 0.01 µM): 1.07
relative viability (UMC-11; first compound 0.1 µM): 1.22
